Test results as given in publication PMC7904743, “WIDOCK: a reactive docking protocol for virtual screening of covalent inhibitors” (Journal of Computer-Aided Molecular Design, 2021).
Entries after “also recorded” stand apart in the source; their conditions may differ. Like-named read-outs stand apart in the source and are kept apart here.

Legend:
[1] = molecular target: T1, MurA (Escherichia coli, UniProt P0A749); conditions: cited from earlier work; for experimental activity class against MurA: < 60% residual activity at 100 μM considered active; for MurA RA (%): residual activity at 100 μM, single point
T1 sequence (P0A749 whole entry): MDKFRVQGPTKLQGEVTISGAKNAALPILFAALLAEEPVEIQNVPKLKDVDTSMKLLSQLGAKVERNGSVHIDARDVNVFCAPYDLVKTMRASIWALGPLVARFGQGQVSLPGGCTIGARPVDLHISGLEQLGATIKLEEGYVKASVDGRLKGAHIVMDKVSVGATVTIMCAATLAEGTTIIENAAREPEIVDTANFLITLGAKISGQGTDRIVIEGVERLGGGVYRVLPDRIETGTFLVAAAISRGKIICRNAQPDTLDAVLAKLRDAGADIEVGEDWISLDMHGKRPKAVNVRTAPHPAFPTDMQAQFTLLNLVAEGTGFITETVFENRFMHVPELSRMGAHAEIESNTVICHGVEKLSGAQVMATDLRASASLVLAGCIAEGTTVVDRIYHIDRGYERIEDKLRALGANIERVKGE

[2] = molecular target: T2, human MAO-A (Homo sapiens, UniProt P21397); experiment: Labelling of human MAO-A, tryptic digestion and LC–MS/MS; type: binding; conditions: 24 h at 4 °C, tryptic digestion
T2 sequence (P21397 1-527): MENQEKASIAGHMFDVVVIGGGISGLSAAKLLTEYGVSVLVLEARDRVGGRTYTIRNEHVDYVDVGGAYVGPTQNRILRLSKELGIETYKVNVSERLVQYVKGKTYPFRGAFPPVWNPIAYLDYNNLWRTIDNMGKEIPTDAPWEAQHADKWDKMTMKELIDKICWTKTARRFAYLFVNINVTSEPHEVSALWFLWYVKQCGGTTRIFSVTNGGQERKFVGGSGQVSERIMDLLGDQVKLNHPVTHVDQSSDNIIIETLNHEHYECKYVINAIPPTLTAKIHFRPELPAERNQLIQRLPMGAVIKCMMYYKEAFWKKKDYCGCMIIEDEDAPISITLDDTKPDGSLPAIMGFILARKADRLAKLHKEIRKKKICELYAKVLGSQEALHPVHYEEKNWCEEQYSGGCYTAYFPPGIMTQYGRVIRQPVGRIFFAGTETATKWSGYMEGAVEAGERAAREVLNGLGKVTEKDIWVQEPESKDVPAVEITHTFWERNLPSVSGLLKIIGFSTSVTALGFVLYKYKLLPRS

[3] = Kinetic measurement of adduct formation with L-glutathione (GSH) by HPLC–MS; type: physicochemical; design: unit not given here
Description: Electrophilic fragments tested against MurA, CatB and MAO-A (25–53, structures shown in Supporting Figure S2 and SMILES provided in Supporting Table S1) represent eight different warhead chemotypes reacting via two reaction mechanisms: Michael-type nucleophilic addition and nucleophilic substitution. The intrinsic thiol reactivities (see Table 1) were determined by kinetic measurement of adduct formation with L-glutathione (GSH), a widely used cysteine surrogate, by an HPLC–MS methodology, as described in the referred study.

[4] = cited from earlier work
[5] = molecular target: T3, CatB (Homo sapiens, UniProt P07858); experiment: CatB single point enzyme activity assay (residual activity); conditions: for remaining activity at 100 µM: read-out: RA
Description: (§1) These fragments were measured in single point enzyme activity assays at 100 μM concentration against MurA and CatB.

[6] = molecular target: T3, CatB; design: method as in PMID 30321804; conditions: cited from earlier work; for CatB RA (%): residual activity at 100 μM, single point
[7] = molecular target: T1, MurA; conditions: MurA residual activity; active if lower than 60%
Description: as §1

[8] = molecular target: T4, Recombinant human microsomal MAO-A (Homo sapiens, UniProt P21397); experiment: MAO-A activity assay (fluorimetric, Amplex Red, p-tyramine); type: biochemical; conditions: for RA: MAO-A residual activity, active if lower than 60%
T4 construct: purchased Sigma Aldrich; host or cells: baculovirus infected insect cells (BTI-TN-5B1-4)
T4 sequence (P21397 1-527): T2 sequence (P21397 1-527)
Description: The effects of the test compounds on MAO-A were investigated using a fluorimetric assay, following a previously described methodology. The inhibitory activity of the compounds was evaluated by their effects on the production of hydrogen peroxide (H2O2) from p-tyramine. The production of H2O2 was detected using Amplex Red reagent in the presence of horseradish peroxidase, where a highly sensitive fluorescent product, resorufin, is produced at stoichiometric amounts. Recombinant human microsomal MAO-A enzyme expressed in baculovirus infected insect cells (BTI-TN-5B1-4), horse-radish peroxidase (type II, lyophilized powder), and p-tyramine hydrochloride were obtained from Sigma Aldrich. 10-Acetyl-3,7-dihydroxyphenoxazine (Amplex Red reagent) was synthesized as described in the literature.
Briefly, 100 µL 50 mM sodium phosphate buffer (pH 7.4, 0.05% Triton X-114) containing the compounds and MAO-A were incubated for 30 min at 37 °C in a flat-bottomed black 96-well microplate, and placed in a dark microplate reader chamber. After the pre-incubation, the reaction was started by adding the final concentrations of 200 µM Amplex Red reagent, 2 U/mL horseradish peroxidase, and 1 mM p-tyramine (final volume, 200 µL). The production of resorufin was quantified based on the fluorescence generated (λex = 530 nm, λem = 590 nm) at 37 °C over a period of 30 min, during which time the fluorescence increased linearly. For control experiments, DMSO was used instead of the appropriate dilutions of the compounds in DMSO. To determine the blank value (b), phosphate-buffered solution replaced the enzyme solution. The initial velocities were calculated from the trends obtained, with each measurement carried out in duplicate. The specific fluorescence emission to obtain the final result was calculated after subtraction of the blank activity (b).

[9] = tested on: KRAS^G12C; design: method as in PMID 28621541; conditions: > 50% labeling at 100 μM considered active; cited from earlier work
[10] = molecular target: T1, MurA; experiment: biochemical; conditions: read-out: RA
Description: as §1

[11] = half-life of adduct formation with L-glutathione

SMILES	experimental activity class against MurA [1]	covalent labelling of MAO-A (MS/MS) [2]	MurA RA (%) [1] [%]	Reactivity, Experimental ln(k) vs GSH [3]	GSH half-life [4, 11] [h]	RA ([5]; CatB residual activity, active if lower than 60%) [%]	CatB RA (%) [6] [%]	RA [7] [%]	RA [8] [%]	experimental activity class against KRAS^G12C [9]	remaining activity at 100 µM [10] [%]	remaining activity at 100 µM [5] [%]	GSH half-life ([4]; buffer) [h]	MAO-A inhibition (experimental) ([8]; MAO-A inhibitory assay)	experimental activity class against CatB ([6]; < 60% residual activity at 100 μM considered active)
C=CC(=O)Nc1cc(C(F)(F)F)cc(C(F)(F)F)c1 [Compound 32, C=CC(=O)Nc1cc(C(F)(F)F)cc(C(F)(F)F)c1]	experimental MurA actives	double modified; also recorded: forms a covalent bond with Cys323	–	–	–	–	–	–	–	–	–	–	–	–	–
C/C=C/C#N [Compound 28, C/C=C/C#N]	–	–	101	-4.085	41.2	87	87	101	81	–	–	–	–	–	–
Cc1ccc2[nH]ncc2c1-c1c(Cl)cc2c(N3CCC(NC(=O)CCl)CC3)ncnc2c1F [Compound 17, c1n[nH]c(c12)ccc(C)c2-c(c(Cl)c3)c(F)c(c34)ncnc4N5CCC(CC5)NC(=O)CCl]	–	–	–	–	–	–	–	–	–	experimental actives	–	–	–	–	–
Cc1ccc2[nH]ncc2c1-c1c(Cl)cc2c(N3CCN(C(=O)n4ccnc4)CC3)ncnc2c1F [Compound 14, c1n[nH]c(c12)ccc(C)c2-c(c(Cl)c3)c(F)c(c34)ncnc4N5CCN(CC5)C(=O)n6ccnc6]	–	–	–	–	–	–	–	–	–	experimental actives	–	–	–	–	–
CC(C)(C)OC(=O)N1CC=CC1=O [Compound 42, CC(C)(C)OC(=O)N1CC=CC1=O]	–	–	92	-5.449	161	–	85	–	47	–	92	85	–	–	–
O=C1C=CC(=O)N1C1CCCCC1 [Compound 40, O=C1C=CC(=O)N1C1CCCCC1]	–	–	1	1.936	< 0.1	–	89	–	3	–	1	89	–	–	–
O=C(CBr)c1ccccc1 [Compound 45, O=C(CBr)c1ccccc1]	–	–	2	1.936	–	–	27	–	39	–	2	27	< 0.1	found to inhibit MAO-A activity	–
CCOC(=O)/C=C/c1ccccc1 [Compound 27, CCOC(=O)/C=C/c1ccccc1]	–	–	92	-4.242	48.2	–	79	–	97	–	92	79	–	–	–
CN1C(=O)C=CC1=O [Compound 38, CN1C(=O)C=CC1=O]	–	–	1	1.936	< 0.1	–	91	–	5	–	1	91	–	–	–
COc1ccccc1C(=O)CBr [Compound 46, COc1ccccc1C(=O)CBr]	experimental MurA actives	–	3	1.936	< 0.1	–	55	–	39	–	3	55	–	–	experimental actives
COc1cc(NC(=O)CCl)cc(OC)c1 [Compound 51, COc1cc(NC(=O)CCl)cc(OC)c1]	–	–	61	-3.498	22.9	–	87	–	69	–	61	87	–	–	–
O=S(=O)(/C=C/c1ccccc1)c1ccccc1 [Compound 35, O=S(=O)(/C=C/c1ccccc1)c1ccccc1]	–	–	82	-4.913	94.3	–	77	–	87	–	82	77	–	–	–
